Experimental data reported in US7993662B2, “Transparent solid oil cosmetics” (Kokyu Alcohol Kogyo Co., Ltd., priority 2005, dated 2011).

Tests used:
Type in all cases: physicochemical
[1] = Evaluation of hardness (EZ-Test-20N hardness meter, needle penetration); conditions: 25° C.
Description: A sample such as a solid or an oil-based cosmetic was stored in a temperature-controlled room at 25° C. for at least 1 day, and measurement was carried out using an EZ-Test-20N hardness meter (manufactured by Shimadzu Corporation). The needle diameter was 1.0 mmφ, and the maximum value measured for the stress (N) at a needle penetration depth of 10 mm with a test speed of 10 mm/min was defined as the hardness.
Measurement was carried out using an EZ-Test-20N hardness meter (manufactured by Shimadzu Corporation). The needle diameter was 1.0 mmφ, and the maximum value measured for the stress (N) at a needle penetration depth of 10 mm with a test speed of 10 mm/min was defined as the hardness.

[2] = Exudation (45° C. for 2 hours, then 25° C. for 3 hours, visual); parameters: key: A: When the amount of exudation was small and there were no oil droplets; B: when a slight degree of exudation was observed but the exudation went back in the temperature-controlled room at 25° C.; when the amount of exudation was large and the exudation did not go back even in the temperature-controlled room at 25° C
Description: After the sample stored in the 50 mL glass container as described in the above-mentioned sample preparation method was stored in a temperature-controlled room at 45° C. for 2 hours, the amount of exudation on the surface of the sample was visually evaluated. The extent to which the exudation went back when the sample was returned to the temperature-controlled room at 25° C. and stored for 3 hours was also evaluated.

[3] = Miscibility evaluation (visual, 100° C. to 110° C.); conditions: result in words
Description: Sample preparation method: Predetermined amounts (mass %) of all components were weighed, dissolved at a temperature of 100° C. to 110° C. as appropriate, stirred until uniform, then cooled to 80° C. to 90° C. while stirring, poured into a preheated 50 mL glass container, transferred to a temperature-controlled room at 45° C., stored for 1 hour while gradually cooling, further transferred to a temperature-controlled room at 25° C., and stored for at least 1 day, thus giving a sample. Evaluation Methods for Various Characteristics (1) Miscibility Evaluation Method
The miscibility at a temperature of 100° C. to 110° C. when preparing the sample was evaluated visually as a degree of difficulty. One that was easily miscible was evaluated as ‘A’, one that was slightly difficulty miscible was evaluated as ‘B’, and one that was difficulty miscible was evaluated as ‘C’.

[4] = UNICLEAR 100VG: 30% with 70% of the listed component
[5] = Versamid 930: 30% with 70% of the listed component
[6] = […] A200V: 30% with 70% of the listed component

Molecule | Hardness [1, 4] | Exudation properties [2, 4] | other results
CCCCCCCCCCCCCCCCOC(=O)C(CC)CCCC (stereo not shown) [CEH, Cetyl ethylhexanoate] | 0.70 N | A | 
CC(C)CCCCCCCCCCCCCCCOC(=O)CC(O)C(=O)OCCCCCCCCCCCCCCCC(C)C (stereo not shown) [DIS, Diisostearyl malate] | 0.80 N | A | Hardness [1, 5]: 0.12 N; Exudation properties [2, 5]: A
CCCCCCCCCCCCC(CO)CCCCCCCCCC (stereo not shown) [Example 24SP, Decyltetradecanol] |  |  | Hardness [1, 6]: 0.05 N; Exudation properties [2, 6]: C
CCCCCCCCCCCCCCC(CO)CCCCCCCCCCCC (stereo not shown) [Example 28SP, Dodecylhexadecanol] |  |  | Hardness [1, 6]: 0.09 N; Exudation properties [2, 6]: C
CC(C)CCCCCCCCCCCCCCC(=O)OC(C)C [IPIS, Isopropyl isostearate] | 0.60 N | A | 
CC(C)CCCCCCCCCCCCCCCOC(=O)CCCCCCCCCCCCCCC(C)C [ISIS, Isostearyl isostearate] | 0.05 N | B | 
CC(C)CCCCCCCCCCOC(=O)CCCCCC(C)C [KAK139, Isotridecyl isononanoate] | 0.50 N | A | 
CCCCC(CC)C(=O)OCC(C)(C)COC(=O)C(CC)CCCC (stereo not shown) [NDO, Neopentylglycol diethylhexanoate] | 0.90 N | A | 
CC(C)CCCCCCCCCCCCCCC(=O)OCC(COC(=O)CCCCCCCCCCCCCCC(C)C)(COC(=O)CCCCCCCCCCCCCCC(C)C)COC(=O)CCCCCCCCCCCCCCC(C)C [PTI, Pentaerythrityl tetraisostearate] | 0.01 N | B | 
CCCCC(CC)C(=O)OCC(COC(=O)C(CC)CCCC)(COC(=O)C(CC)CCCC)COC(=O)C(CC)CCCC (stereo not shown) [PTO, Pentaerythrityl tetraethylhexanoate] | 0.04 N | B | 
Nc1cc(S(=O)(=O)[O-])cc2cc(S(=O)(=O)[O-])c(N=Nc3ccccc3)c(O)c12.[Na+].[Na+] [Red. No. 227] |  |  | miscibility with the base [3]: particularly excellent
CC(C)CCCC(C)CCCC(C)CCCCC(C)CCCC(C)CCCC(C)C (stereo not shown) [SQ, Squalane] | 0.02 N | A | 
CC(C)CCCCCCCCCCCCCCC(=O)OCC(COC(=O)CCCCCCCCCCCCCCC(C)C)OC(=O)CCCCCCCCCCCCCCC(C)C [TISG, Triisostearin] | 0.03 N | B | 
CCCCC(CC)C(=O)OCC(COC(=O)C(CC)CCCC)OC(=O)C(CC)CCCC (stereo not shown) [TOG, Triethylhexanoin] | 0.06 N | B | 
CCC(COC(=O)CCCCCCCCCCCCCCC(C)C)(COC(=O)CCCCCCCCCCCCCCC(C)C)COC(=O)CCCCCCCCCCCCCCC(C)C [TTI, Trimethylolpropane triisostearate] | 0.01 N | B | Hardness [1, 6]: 0.02 N; Exudation properties [2, 6]: B
Polyglyceryl-2 diisostearate [PGIS22] | 0.33 N | A | Hardness [1, 5]: 3.00 N; Exudation properties [2, 5]: A
Polyglyceryl-2 isostearate [PGIS21] | 0.35 N | A | 
Polyglyceryl-2 triisostearate [PGIS23] | 0.50 N | A | 
Trimethylolpropane triethylhexanoate [TTO] |  |  | Hardness [1, 6]: 0.03 N; Exudation properties [2, 6]: B
